Legend:
[1] = system: human PBMC; assay: Cytokine production (IL-1β, IL-6) at 24 hr by human PBMC incubated with 1 ng/mL LPS; type: cell-based; details: anti-VISTA conjugates, serial dilutions with respect to total ADC concentration (20-0.003 μg/mL), equivalent or reduced DAR
How it was run: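 Human PBMC were stimulated with 1 ng/mL LPS together with serial dilutions of steroid payloads or glucocorticoid conjugates, spanning up to 8,000 nM down to 0.032 nM depending on the series. IL-1β and IL-6 were measured at 24 hr from technical duplicates, with 1-2 donors. Values above the ULOQ were extrapolated.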

[2] = system: peritoneal resident macrophages (PRM); assay: In vivo treatment/ex vivo PRM activation, TNFα and IL-6 in supernatant; design: species or system hVISTA mice
[3] = system: LPS stimulated human PBMCs; assay: LPS stimulated human PBMC, IL-1β and IL-6 ELISA; type: cell-based
How it was run: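 Human PBMC (1-2 healthy donors), 150,000 cells/well, treated with test agents at 1,000 nM down to 1 nM or 0.2 nM, in duplicate. LPS at 1 ng/ml added immediately after free payload or 4 h after conjugates; IL-1β and IL-6 in supernatants measured by ELISA.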

[4] = linker/payloads as anti-VISTA conjugates

## C[C@]12C=CC(=O)C=C1CC[C@@H]1[C@@H]2[C@@H](O)C[C@@]2(C)[C@H]1C[C@H]1O[C@@H](c3ccc(CC4CC5(C4)CC(NC(=O)[C@H](CCC(=O)O)NC(=O)CNC(=O)CBr)C5)cc3)O[C@]12C(=O)CO (stereo partly drawn) [INX V, (S)-4-(2-(2-bromoacetamido)acetamido)-5-((6-(4-((6aR,6bS,7S,8aS,8bS,10R,11aR,12aS,12bS)-7-hydroxy-8b-(2-hydroxyacetyl)-6a,8a-dimethyl-4-oxo-2,4,6a,6b,7,8,8a,8b,11a,12,12a,12b-dodecahydro-1H-naphtho[2′,1′:4,5]indeno[1,2-d][1,3]dioxol-10-yl)benzyl)spiro[3.3]heptan-2-yl)amino)-5-oxopentanoic acid]
[1]
  potency in reducing IL-1β production: enhanced potency
[2]; Experiment 9: linker payloads as conjugates, 7 days post 0.2 mg/Kg of GC payload, supernatant 24h
  preventing ex vivo induction of TNFα and IL-6 in PRM: remarkable long-term potency in controlling cytokine responses
[2]; [4]
  controlling cytokine response in PRM when dosed 14 days early (conclusions): significant potency in controlling cytokine response in PRM when dosed 14 days early
  potency in PRM cytokine model when dosed 7 days early (conclusions): remarkably more potent than payloads INX P and INX R when dosed 7 days early
[3]
  potency of conjugated linker payloads over INX J (conclusions): enhanced potency
